Drawing on PMC10380348 (2023), this text covers binding for one molecule.

The experiment has as its system MnG4C1 (DNA, G4) AGGGGGGGAGTTAGGGCGCACGTTAGGGGTGCTATTAGGG
Briefly: ThT fluorescence light-up, 492 nm. To be noted: 50 mM Tris-HCl pH 7.5, room temperature, 3 µM ThT, 1 mM aptamer.

`Cc1ccc2c(c1)sc(-c1ccc(N(C)C)cc1)[n+]2C`: the binding result (K+ 0-30 mM) is “yes” and the binding entry (Mn2+ 0-100 µM) is reported as “yes”.
